Results: patent US20120108431A1, “PLANT GROWTH REGULATOR ADDITIVE” (TAMINCO, NAAMLOZE VENNOOTSCHAP, priority 2009, published 2012)
Values joined by “and” are separate entries in the source; they are usually repeats but may differ in a detail not shown here. Equal entries are not always repeated.

Experiments:
Type in all cases: in vivo
Soybean = Soybean Trial 1, pot trial, foliar spray at V2-V3; settings: soybean
Navy bean cv Primel = assay: Navy bean Trial 2, pot trial, foliar spray at V2-V3; settings: navy bean
Winter wheat cv Limerick = assay: Winter wheat Trial 3, pot trial, sprayed at GS23
Description: The applied concentration of chemical can vary widely depending on the water volume applied to plants as well as other factors such as plant age and size, and plant sensitivity to the product. […] The rate of other components such as spreaders and stickers can be 50-200 ml per ha. C. […] Sprayed: 10 June, at GS23 (early-mid tillering). Plants were scored/assessed at GS33 on 12 July, with other measurements at crop maturity.

Winter wheat = Winter wheat Trial 4, field trial, mean of nine varieties
Excerpt: (§1) The applied concentration of chemical can vary widely depending on the water volume applied to plants as well as other factors such as plant age and size, and plant sensitivity to the product. Typical rates of AN-related compounds would be 1-10 g/ha (preferably and as used in these trials, 1 g per hectare was applied), typical rates of acetaminophen or its derivatives would be 1-10 g/ha (preferably and as used in these trials, 3 g per hectare was applied). Typical rates of the agrochemically acceptable additive of the present invention would be 1-10 g/ha (preferably and as used in these trials, less than 3 g per hectare was applied). The rate of other components such as spreaders and stickers can be 50-200 ml per ha.
D. WINTER WHEAT TRIAL 4—Field trial, sown 18 Oct. 2007. Mean of Nine Varieties—mean values from varieties Solstice, Battalion, Duxford, Marksman, Gallant, Panorama, Qplus, Cassius, Alchemy. Location: Great Dunmow, Essex, UK, 2008. Seed rate 400 seeds/sq metre. Formulations applied mid-tillering (GS23), and assessed at GS33 and at maturity.

Winter barley = Winter barley Trial 5, field trial, mean of nine varieties
Excerpt: as §1
E. WINTER BARLEY TRIAL 5—Field trial, sown 14 Oct. 2007. Mean of Nine Varieties—mean values from varieties Pearl, Flagon, Cassata, Wintmalt, Saffron, Suzuka, Marcorel, Sequel, Volume. Location: Great Dunmow, Essex, UK, 2008. Seed rate 400 seeds/sq metre. Formulations applied mid-tillering (GS23), and assessed at GS33 and at maturity.

Winter wheat varieties = Winter wheat varieties UK field trials, mean root weight per plant; settings: for Mean Root Weight Per Plant (g), individual replicate: GS33, individual replicates, listed as B.; for Mean Root Weight Per Plant (g), Mean: GS33, mean of replicates; for Increase in Mean Root Weight Per Plant: GS33, vs A. Control
Excerpt: F. WINTER WHEAT VARIETIES—UK field trials. Formulations applied at mid-tillering and measured at third node stage (GS33).
(§2) Treatments compared: • A. Control vs • B. Chlormequat chloride (620 g/litre) applied at 1.0 litre in 250 litres water per hectare. • C. Anthranilic Acid (1 g/ha)+Acetaminophen (3 g/ha) in 250 litres water per hectare. • B.+C. Combination of B. and C. above, in 250 litres water per hectare.
Mean Root Weight Per Plant (g)—three winter wheat varieties: individual replicates and mean values. Mean root weight per plant (g) is a mean value from 10 median plants taken from a representative 20 plant sample per plot.

Winter barley varieties = Winter barley varieties UK field trials, mean root weight per plant; settings: for Mean Root Weight Per Plant (g), individual replicate: GS33, individual replicates, listed as B.; for Mean Root Weight Per Plant (g), Mean: GS33, mean of replicates; for Increase in Mean Root Weight Per Plant: GS33, vs A. Control
Excerpt: G. WINTER BARLEY VARIETIES—UK field trials. Formulations applied at mid-tillering and measured at third node stage (GS33).
as §2
Mean Root Weight Per Plant (g)—three winter barley varieties: individual replicates and mean values.

[1] = score 0-9, 28 days after spraying
[2] = increase over the line given as 0 (untreated or growth regulator alone)
[3] = winter wheat pots, increase over the line given as 0 (untreated or growth regulator alone)

C[N+](C)(C)CCCl [CCC, Chlormequat chloride]
No of Large Pod Bearing Branches/Plant at Harvest (Soybean; at harvest): 1.0
Final Seed Yield at Harvest (g per pot) (Soybean; one plant per pot): 36.0 g per pot
Plant Biomass Score (0-9) at Harvest (Soybean; score 0-9): 6.0
Rooting (0-9) + 28 Days (Soybean; [1]): 4.4
Final Seed Yield + % (Soybean; [2]): 0%
No of Large Pod Bearing Branches/Plant + % (Soybean; [2]): 0%
Plant Biomass Score + % (Soybean; [2]): 0%
Rooting + % (Soybean; [2]): 0%
No of Large Pod Bearing Branches/Plant at Harvest (Navy bean cv Primel; at harvest): 1.4
Final Seed Yield at Harvest (g per pot) (Navy bean cv Primel; one plant per pot): 55.6 g per pot
Plant Biomass Score (0-9) at Harvest (Navy bean cv Primel; score 0-9): 5.4
Rooting (0-9) + 28 Days (Navy bean cv Primel; [1]): 7.4
Final Seed Yield + % (Navy bean cv Primel; [2]): 0%
No of Large Pod Bearing Branches/Plant + % (Navy bean cv Primel; [2]): 0%
Plant Biomass Score + % (Navy bean cv Primel; [2]): 0%
Rooting + % (Navy bean cv Primel; [2]): 0%
Total No of Shoots/Plant at GS33 (Winter wheat cv Limerick; winter wheat pots, GS33): 3.8
Total No of “Large” Shoots/Plant at GS33 (Winter wheat cv Limerick; winter wheat pots, GS33): 2.6
Rooting (0-9) + 28 Days (Winter wheat cv Limerick; winter wheat pots, score 0-9, 28 days after spraying): 6.0
Final Seed Yield + % (Winter wheat cv Limerick; [3]): 0%
Rooting + % (Winter wheat cv Limerick; [3]): 0%
Total No of Shoots/Plant + % (Winter wheat cv Limerick; [3]): 0%
Total No of “Large” Shoots/Plant + % (Winter wheat cv Limerick; [3]): 0%
Final Seed Yield at Harvest (g per pot) (Winter wheat cv Limerick; winter wheat, eight plants per pot): 36.4 g per pot
Final Ear Wt (10 ears) (Winter wheat; CCC 1.0 l/ha): 18.4 g
Mean Root Diameter GS33 (cm) (Winter wheat; GS33, CCC 1.0 l/ha): 2.51 cm
Mean Root Length GS33 (cm) (Winter wheat; GS33, CCC 1.0 l/ha): 2.40 cm
Mean Root Weight GS33 (Winter wheat; GS33, CCC 1.0 l/ha): 4.10 g
No of “large” Stems GS33 (Winter wheat; GS33, CCC 1.0 l/ha): 2.95
Total Stem Number GS33 (Winter wheat; GS33, CCC 1.0 l/ha): 4.40
Mean % Lodged Maturity (Winter wheat; at maturity, CCC 1.0 l/ha): 1.7%
Final Ear Wt (10 ears) (Winter barley; CCC 1.0 l/ha): 22.8 g
Mean Root Diameter GS33 (cm) (Winter barley; GS33, CCC 1.0 l/ha): 2.05 cm
Mean Root Length GS33 (cm) (Winter barley; GS33, CCC 1.0 l/ha): 3.66 cm
Mean Root Weight GS33 (Winter barley; GS33, CCC 1.0 l/ha): 3.06 g
No of “large” Stems GS33 (Winter barley; GS33, CCC 1.0 l/ha): 4.23
Total Stem Number GS33 (Winter barley; GS33, CCC 1.0 l/ha): 6.01
Mean % Lodged Maturity (Winter barley; at maturity, CCC 1.0 l/ha): 26.3%
Mean Root Weight Per Plant (g), individual replicate (Winter wheat varieties; winter wheat variety Battalion): 4.1 g and 4.3 g and 4.4 g and 4.2 g
Mean Root Weight Per Plant (g), Mean (Winter wheat varieties; winter wheat variety Battalion): 4.25 g
Increase in Mean Root Weight Per Plant (Winter wheat varieties; winter wheat variety Battalion): +1.12 g
Mean Root Weight Per Plant (g), individual replicate (Winter wheat varieties; winter wheat variety Marksman): 4.3 g and 4.4 g (2×) and 4.5 g
Mean Root Weight Per Plant (g), Mean (Winter wheat varieties; winter wheat variety Marksman): 4.40 g
Increase in Mean Root Weight Per Plant (Winter wheat varieties; winter wheat variety Marksman): +1.10 g
Mean Root Weight Per Plant (g), individual replicate (Winter wheat varieties; winter wheat variety Solstice): 3.6 g (2×) and 3.7 g and 3.8 g
Mean Root Weight Per Plant (g), Mean (Winter wheat varieties; winter wheat variety Solstice): 3.68 g
Increase in Mean Root Weight Per Plant (Winter wheat varieties; winter wheat variety Solstice): +0.9 g
Mean Root Weight Per Plant (g), individual replicate (Winter barley varieties; winter barley variety Flagon): 4.0 g (2×) and 3.9 g and 4.2 g
Mean Root Weight Per Plant (g), Mean (Winter barley varieties; winter barley variety Flagon): 4.03 g
Increase in Mean Root Weight Per Plant (Winter barley varieties; winter barley variety Flagon): +1.65 g
Mean Root Weight Per Plant (g), individual replicate (Winter barley varieties; winter barley variety Marcorel): 2.8 g (3×) and 2.9 g
Mean Root Weight Per Plant (g), Mean (Winter barley varieties; winter barley variety Marcorel): 2.83 g
Increase in Mean Root Weight Per Plant (Winter barley varieties; winter barley variety Marcorel): +0.85 g
Mean Root Weight Per Plant (g), individual replicate (Winter barley varieties; winter barley variety Suzuka): 4.0 g and 3.0 g (3×)
Mean Root Weight Per Plant (g), Mean (Winter barley varieties; winter barley variety Suzuka): 3.25 g
Increase in Mean Root Weight Per Plant (Winter barley varieties; winter barley variety Suzuka): +0.90 g
